The text below walks through data of patent publication US11066433B2, “Pentaaza macrocyclic ring complexes possessing oral bioavailability” (Galera Labs, LLC, priority 2015, dated 2021).

Data set [1] is described as follows: Oral bioavailability by intraduodenal (id) dosing of minipigs, oil formulations, versus iv parent. Format: in vivo, Gottingen minipig. Particulars: id 10 mg/kg, 10% by weight formulation, vs iv 1 mg/kg parent, AUC0-24 h. Here is the method:
Compounds were screened for oral bioavailability by injecting the formulated prodrugs directly into the duodenum (intraduodenal or id administration) of the minipig test subjects, thus bypassing the acidic environment of the stomach and thereby eliminating potentially misleading oral bioavailability results that could arise from alteration of the test article drug in the acid environment of the stomach.
The studies were conducted at Xenometrics LLC (Stillwell, Kans.) and the id bioavailability was determined using various axial ligand derivative complexes of GC4419, GC4444, GC4403 and GC4401.
Male Gottingen minipigs (4-5 mo old, 9-12 kg weight) were purchased from Marshall BioResources and housed at Xenometrics. […] The distal end was exteriorized with a reusable accessible hub (see surgical details below). During a recovery period of at least 2 weeks the minipigs were handled daily to acclimate them to the test procedures, i.e., id dosing and blood collections. For each experiment, each minipig received a test article drug dissolved or suspended in an excipient vehicle. […] All dosing experiments were conducted in fasted animals. Food was withdrawn from the minipigs 16 hours before dosing. The minipigs had ad libitum access to water. Dosed minipigs were allowed access to food 6 hour after dosing. The test article was administered at a dose of 10 mg/kg parent drug in 0.1 mL/kg vehicle (e.g., 1.5 mL in 15 kg minipig) as a bolus injection (˜1 minute) via the id cannula. The actual amount of total test article drug administered varied with the formula weight of the prodrug. An equal volume of excipient vehicle was used to flush the cannula after the test article was administered. Approximately 6 hours later, corn oil was used to flush the cannula. After approximately 24 hours post-dose, the catheter was flushed with sterile saline solution and capped. At the following time-points 0.25, 0.5, 1, 2, 4, 8, 24 and 48 hour post-injection, 2 mL blood samples were collected by cranial vena cava puncture (4 mL Sodium heparin Vacutainer, 20 g 1.5″ needle) after the skin surface was wiped with ethanol. The minipig was placed in a sling in a recumbent position without anesthesia for the collection of blood samples. The minipigs were never used more than once per 7 days for experimentation. The blood samples were kept on ice until processed for plasma. Blood samples were centrifuged at 1200×g for ten minutes at 4° C. and plasma samples were transferred to 96 well plate tubes, capped and stored at −20° C. until shipment on dry ice to the analytical laboratory used for measuring the concentration of drug in the plasma. The concentration of the parent manganese pentaaza macrocylic ring complex (independent of the composition of the axial ligands) was measured in plasma using a validated HPLC/MS/MS method that is linear between 50 ng/mL and 20,000 ng/mL.
Maisine 35-1 is chemically defined to be the monoglyceride glyceryl monolinoleate (NF) and was supplied by Gattefosse, SAINT-PRIEST Cedex, France. Labrasol (NF) is chemically defined to be caprylocaproyl polyoxyl-8 glycerides NF and was supplied by Gattefosse, SAINT-PRIEST Cedex, France. Labrafil M 1944 CS is chemically defined to be oleoyl polyoxyl-6 glycerides (NF), and is available from Gattefosse, SAINT-PRIEST Cedex, France. The dosing solutions were all prepared using a four place analytical balance by weighing all components of each formulation so that 10% by weight of each formulation contained the test article drug substance and 90% by weight of the oil used for that formulation.
The bioanalytical method which is used to quantitate the parent Mn(II) macrocyclic ring ligand structure in plasma utilizes HPLC with MS/MS detection and monitors the presence of the monocationic [monoformatoMn(pentaazamacrocycle)]+ complex. […]

Data set [2] is described as follows: Solubility in water. Format: physicochemical.
The test system of data set [3] is VEGFr inhibitor-induced pulmonary disease. To be noted: ip, rat model; cited from earlier work.
Data set [4] relates to mouse cancer models. To be noted: ip; cited from earlier work.
Data set [5] has as its system oral mucositis. To be noted: iv infusion, head-and-neck cancer patients, chemoradiation therapy; cited from earlier work.
The test system of data set [6] is colon of rats subjected to an experimental model of colitis. Particulars: ip injection; cited from earlier work.
The subject of data set [7] is radiation-induced oral mucositis. To be noted: ip, hamster oral mucositis model; cited from earlier work.
Data set [8] concerns lethal total body irradiation. Particulars: ip, adult mice; cited from earlier work.
Data set [9] deals with inflammation. To be noted: ip, rat; cited from earlier work.
The test system of data set [10] is collagen-induced arthritis. Particulars: ip, rat collagen-induced arthritis; cited from earlier work.

As to `[Cl][Mn][Cl].c1cc2nc(c1)CN[C@H]1CCCC[C@@H]1NCCN[C@H]1CCCC[C@@H]1NC2` [GC4419, reference compound], the “Mini-Pig BioA” value in data set [1] (base oil Capmul MCM) came out at 9%; in data set [1] (base oil Labrafil M2125 CS) it was 7%; in data set [1] (base oil Maisine 35-1) it was 8%; in data set [1] (base oil Miglyol 812 N), 8%; in [1] (base oil Peceol) it was 9%. In data set [2], the solubility in water entry is on record as “relatively readily soluble in water”. The pulmonary disease result in [3] is listed as “attenuate VEGFr inhibitor-induced pulmonary disease”. The “anti-tumor activity of anti-metabolite and anti-mitotic agents” value in data set [4] is listed as “increase the anti-tumor activity”. Further, the oral mucositis result in data set [5] is recorded as “reduce oral mucositis”.

Take `[Cl-].[Cl-].[Mn+2].c1cc2nc(c1)CN[C@@H]1CCCC[C@H]1NCCN[C@@H]1CCCC[C@H]1NC2` [GC4403]: the “Mini-Pig BioA” value in data set [1] (base oil Capmul MCM) was 9%. Moreover, the “injury to the colon” value in data set [6] was “significantly reduce the injury to the colon”. For the same compound, the radiation damage result in [7] and in data set [8] was “attenuate the radiation damage” each time. The inflammation entry in data set [9] was “inhibit inflammation”. For the same compound, the joint disease result in [10] is “prevent joint disease”.

Regarding “Manganese(II)bis-n-Butyrato[(4aS,13aS,17aS,21aS)-1,2,3,4,4a,5,6,12,13,13a,14,15,16,17,17a,18,19,20,21,21a-Eicosahydro-11,7-nitrilo-7H-dibenzo[b,h][1,4,7,10] tetraazacycloheptadecine-κN5, κN13, κN18, κN21, κN22]- [GC4713]”, the “Mini-Pig BioA” value in data set [1] (base oil Labrafil M2125 CS) amounted to 21%; in data set [1] (base oil Peceol), 18%.

Turning to “Manganese(II)bis-L-phenylalaninato[(4aS,13aS,17aS,21 aS)-1,2,3,4,4a,5,6,12,13,13a,14, 15,16,17,17a,18,19,20,21,21a-Eicosahydro-11,7-nitrilo-7H-dibenzo[b, h][1,4,7,10]tetraazacyclo-heptadecine-κN5, κN13, κN18, κN21, κN22]- [GC4704]”, in data set [1] (base oil Capmul MCM), the “Mini-Pig BioA” value worked out at 10%.

Consider “Manganese(II)bis-racemic-phenylglycinato[(4aS,13aS,17aS,21 aS)-1,2,3,4,4a,5,6,12,13,13a,14,15,16,17,17a,18,19,20,21,21a-Eicosahydro-11,7-nitrilo-7H-dibenzo[b,h][1,4,7,10] tetraazacycloheptadecine-κN5, κN13, κN18, κN21, κN22]- [GC4720]”, for which the entries for the “Mini-Pig BioA” value in data set [1] (base oil Capmul MCM) and in data set [1] (base oil Miglyol 812 N) were 33% and 32%, respectively.

On to “Manganese(II)bis-cyclohexanebutyrato[(4aS,13aS,17aS,21 aS)-1,2,3,4,4a,5,6,12,13,13a, 14,15,16,17,17a,18,19,20,21,21a-Eicosahydro-11,7-nitrilo-7H-dibenzo[b,h][1,4,7,10]tetraazacyclo-heptadecine-κN5, κN13, κN18, κN21, κN22]- [GC4707]”, for which, in [1] (base oil Capmul MCM), the “Mini-Pig BioA” value is 9%.

Consider “Manganese(II)bis-pivaloato[(4aS,13aS,17aS,21aS)-1,2,3,4,4a,5,6,12,13,13a,14,15,16,17,17a,18,19,20,21,21a-Eicosahydro-11,7-nitrilo-7H-dibenzo[b,h][1,4,7,10] tetraazacycloheptadecine-κN5, κN13, κN18, κN21, κN22]- [GC4709]”, for which the “Mini-Pig BioA” value in [1] (base oil Capmul MCM) amounted to 17%; in data set [1] (base oil Labrafil M2125 CS), 22%.
